In US20080269250A1, “Pyrrolidine and Piperidine Acetylene Derivatives for Use as Mglur5 Antagonists” (priority 2005, published 2008):

Experiments:
[1] = target: T1, hmGluR5 (Homo sapiens, UniProt P41594); experiment: inhibition of quinqualate-induced inositol phosphate turnover in hmGluR5 expressing cells; assay type: cell-based; details: read-out: IC50 concentration, inhibition of quinqualate-induced inositol phosphate turnover
T1 construct: expressed in transfected cells
From the text: This can be determined in vitro for example at recombinant human metabotropic glutamate receptors, especially PLC-coupled subtypes thereof such as mGluRs, using different procedures like, for example, measurement of the inhibition of the agonist induced elevation of intracellular Ca^2+ concentration in accordance with L. P. Daggett et al., Neuropharm. Vol. 34, pages 871-886 (1995), P. J. Flor et al., J. Neurochem. Vol. 67, pages 58-63 (1996) or by determination to what extent the agonist induced elevation of the inositol phosphate turnover is inhibited as described by T. Knoepfel et al., Eur. J. Pharmacol. Vol. 288, pages 389-392 (1994), L. P. Daggett et al., Neuropharm. Vol. […] and references cited therein. Isolation and expression of human mGluR subtypes are described in U.S. Pat. No. 5,521,297. Selected agents of the invention show IC50 values for the inhibition of the agonist (e.g. glutamate or quisqualate) induced elevation of intracellular Ca2+ concentration or the agonist (e.g. glutamate or quisqualate) induced inositol phosphate turnover, measured in recombinant cells expressing hmGluR5a of about 1 nM to about 50 μM.

[2] = system: mice; experiment: stress-induced hyperthermia in mice; assay type: in vivo; details: control 0.93±0.1° C.
Method: A. Lecci et al., Psychopharmacol 101, 255-261]. At doses of about 0.1 to about 30 mg/kg p.o., selected agents of the invention reverse the stress-induced hyperthermia.

T1 sequence (P41594 21-1180 isoform P41594-2 limits assumed): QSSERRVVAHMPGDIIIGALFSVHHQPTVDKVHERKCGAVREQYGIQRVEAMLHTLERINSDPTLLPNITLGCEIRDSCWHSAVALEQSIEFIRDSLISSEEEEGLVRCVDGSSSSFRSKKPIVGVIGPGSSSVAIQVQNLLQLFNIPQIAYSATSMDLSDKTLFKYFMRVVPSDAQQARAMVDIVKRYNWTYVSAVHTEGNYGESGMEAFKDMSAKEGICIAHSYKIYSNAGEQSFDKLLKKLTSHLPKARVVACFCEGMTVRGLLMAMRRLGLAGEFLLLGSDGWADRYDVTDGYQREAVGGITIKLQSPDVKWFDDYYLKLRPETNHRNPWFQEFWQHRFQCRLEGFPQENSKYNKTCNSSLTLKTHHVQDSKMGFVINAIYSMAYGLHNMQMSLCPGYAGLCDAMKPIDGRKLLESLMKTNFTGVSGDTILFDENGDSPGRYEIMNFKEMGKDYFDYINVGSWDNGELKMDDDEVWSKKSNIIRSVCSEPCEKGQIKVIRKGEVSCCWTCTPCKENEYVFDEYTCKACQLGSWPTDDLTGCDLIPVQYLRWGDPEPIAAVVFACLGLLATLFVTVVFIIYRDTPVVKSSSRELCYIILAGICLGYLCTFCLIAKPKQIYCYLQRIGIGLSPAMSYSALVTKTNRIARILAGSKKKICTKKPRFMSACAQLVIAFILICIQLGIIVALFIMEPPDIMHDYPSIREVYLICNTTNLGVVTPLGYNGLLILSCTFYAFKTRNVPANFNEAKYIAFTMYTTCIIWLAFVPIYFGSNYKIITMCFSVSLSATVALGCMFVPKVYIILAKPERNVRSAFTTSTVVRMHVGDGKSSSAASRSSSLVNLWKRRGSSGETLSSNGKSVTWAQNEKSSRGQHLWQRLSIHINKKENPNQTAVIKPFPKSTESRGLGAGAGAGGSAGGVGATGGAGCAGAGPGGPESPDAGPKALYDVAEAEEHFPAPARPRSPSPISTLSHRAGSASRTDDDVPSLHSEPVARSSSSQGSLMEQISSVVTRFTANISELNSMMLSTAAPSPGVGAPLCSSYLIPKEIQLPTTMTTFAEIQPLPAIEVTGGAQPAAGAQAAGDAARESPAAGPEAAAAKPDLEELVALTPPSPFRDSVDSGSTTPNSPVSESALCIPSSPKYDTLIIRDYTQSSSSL

For `O=C(c1ccoc1)N1CCC(O)(C#Cc2cccc(Cl)c2)CC1` [Example 1, [4-(3-Chloro-phenylethynyl)-4-hydroxy-piperidin-1-yl]-furan-3-yl-methanone], which melting point is on record?
The melting point was 93 to 94 °C.

For `CN1CCC(C(=O)N2CCC(O)(C#Cc3cccc(Cl)c3)CC2)CC1` [Example 1.2, [4-(3-Chloro-phenylethynyl)-4-hydroxy-piperidin-1-yl]-(1-methyl-piperidin-4-yl)-methanone], which melting point is on record?
The melting point was 134 to 136 °C.

For `O=C(c1ccno1)N1CCC(O)(C#Cc2cccc(Cl)c2)CC1` [Example 1.3, [4-(3-Chloro-phenylethynyl)-4-hydroxy-piperidin-1-yl]-isoxazol-5-yl-methanone], which melting point is on record?
Its melting point is 132 to 135 °C.

For `O=C(c1ncc[nH]1)N1CCC(O)(C#Cc2cccc(Cl)c2)CC1` [Example 1.4, [4-(3-Chloro-phenylethynyl)-4-hydroxy-piperidin-1-yl]-(1H-imidazol-2-yl)-methanone], which melting point is on record?
Its melting point is 75 to 80 °C.

Which results are given for `O=C(c1cc2ccccc2o1)N1CCC(O)(C#Cc2cccc(Cl)c2)CC1` [Example 1.8, Benzofuran-2-yl-[4-(3-chloro-phenyl-ethynyl)-4-hydroxy-piperidin-1-yl]-methanone]?
IC50 [1]: 290 nM; stress-induced hyperthermia ([2]; 10 mg/kg p.o., p<0.01): 0.44±0.08 °C; stress-induced hyperthermia ([2]; 30 mg/kg p.o., p<0.05): 0.46±0.14 °C; stress-induced hyperthermia ([2]; 100 mg/kg p.o., p<0.001): 0.24±0.12 °C

With `O=C(c1ccoc1)N1CCC(O)(C#Cc2cccc(F)c2)CC1` [Example 1.31, [4-(3-Fluoro-phenylethynyl)-4-hydroxy-piperidin-1-yl]-furan-3-yl-methanone] as the molecule, how does the melting point read?
The melting point was 67 to 81 °C.

Which melting point does the source give for `O=C(c1ccoc1)N1CCC(O)(C#Cc2ccc(Cl)cc2)CC1` [Example 1.34, [4-(4-Chloro-phenylethynyl)-4-hydroxy-piperidin-1-yl]-furan-3-yl-methanone] here?
The melting point was 124 to 134 °C.

Which melting point does the source give for `O=C(c1ccoc1)N1CCC(O)(C#Cc2ccc(F)cc2F)CC1` [Example 1.35, [4-(2,4-Difluoro-phenylethynyl)-4-hydroxy-piperidin-1-yl]-furan-3-yl-methanone] here?
Its melting point is 80 to 94 °C.

Which melting point does the source give for `COc1cccc(C#CC2(O)CCN(C(=O)c3ccoc3)CC2)c1` [Example 1.36, Furan-3-yl-[4-hydroxy-4-(3-methoxy-phenylethynyl)-piperidin-1-yl]-methanone] here?
Its melting point is 83 to 85 °C.

For `Cc1ccc(C)c(C#CC2(O)CCN(C(=O)c3ccoc3)CC2)c1` [Example 1.37, [4-(2,5-Dimethyl-phenylethynyl)-4-hydroxy-piperidin-1-yl]-furan-3-yl-methanone], which melting point is on record?
The melting point was 110 to 114 °C.

For `O=C(c1ccncc1)N1CCC(O)(C#Cc2cccc(Cl)c2)CC1` [Example 1.52, [4-(3-Chloro-phenylethynyl)-4-hydroxy-piperidin-1-yl]-pyridin-4-yl-methanone], which melting point is on record?
Its melting point is 171 to 173 °C.

Which melting point does the source give for `CC(C)c1ccc(N2CCC(O)(C#Cc3cccc(Cl)c3)CC2)cc1` [Example 1.128, 4-(3-Chloro-phenylethynyl)-1-(4-isopropyl-phenyl)-piperidin-4-ol] here?
The melting point was 114 to 119 °C.

With `Cc1ccccc1N1CCC(O)(C#Cc2cccc(Cl)c2)CC1` [Example 1.137, 4-(3-Chloro-phenylethynyl)-1-o-tolyl-piperidin-4-ol] as the molecule, how does the melting point read?
Its melting point is 128 to 130 °C.

Which melting point does the source give for `OC1(C#Cc2cccc(Cl)c2)CCN(c2cccnc2)CC1` [Example 1.138, 4-(3-Chloro-phenylethynyl)-3,4,5,6-tetrahydro-2H-[1,3]bipyridinyl-4-ol] here?
The melting point was 124 to 128 °C.

Which melting point does the source give for `OC1(C#Cc2cccc(Cl)c2)CCN(c2cccc3nccnc23)CC1` [Example 1.139, 4-(3-Chloro-phenylethynyl)-1-quinoxalin-5-yl-piperidin-4-ol] here?
Its melting point is 68 to 70 °C.

For `OC1(C#Cc2cccc(Cl)c2)CCN(c2nc3ccccc3s2)CC1` [Example 1.144, 1-Benzothiazol-2-yl-4-(3-chloro-phenylethynyl)-piperidin-4-ol], which melting point is on record?
The melting point was 154 to 157 °C.

Which melting point does the source give for `Cc1cccnc1N1CCC(O)(C#Cc2cccc(Cl)c2)CC1` [Example 1.148, 4-(3-Chloro-phenylethynyl)-3′-methyl-3,4,5,6-tetrahydro-2H-[1,2′]bipyridinyl-4-ol] here?
The melting point was 134 to 138 °C.

Which melting point does the source give for `OC1(C#Cc2cccc(Cl)c2)CCN(c2ccnc(Cl)c2)CC1` [Example 1.151, 2′-Chloro-4-(3-chloro-phenylethynyl)-3,4,5,6-tetrahydro-2H-[1,4′]bipyridinyl-4-ol] here?
The melting point was 139 to 142 °C.

Which melting point does the source give for `OC1(C#Cc2cccc(Cl)c2)CCN(c2cncnc2)CC1` [Example 1.162, 4-(3-Chloro-phenylethynyl)-1-pyrimidin-5-yl-piperidin-4-ol] here?
The melting point was 173 to 177 °C.

With `Cc1ncccc1N1CCC(O)(C#Cc2cccc(Cl)c2)CC1` [Example 1.164, 4-(3-Chloro-phenylethynyl)-2′-methyl-3,4,5,6-tetrahydro-2H-[1,3′]-bipyridinyl-4-ol] as the molecule, how does the melting point read?
The melting point was 98 to 102 °C.

With `O=C(C1Oc2ccccc2O1)N1CCC(O)(C#Cc2cccc(Cl)c2)C1` (stereo not drawn) [Example 3.11, Benzo[1,3]dioxol-2-yl-[3-(3-chloro-phenylethynyl)-3-hydroxy-pyrrolidin-1-yl]-methanone] as the molecule, how does the melting point read?
Its melting point is 153 to 155 °C.
